Test results from PubChem BioAssay (NCI).
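Each compound was tested at five concentrations against cells in 96-well plates for 48 hours. At the GI50, growth is halved. TGI marks complete inhibition of growth.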

Columns and labels:
Assay in all cases: NCI-60 cell line screen, 48 h
SF-268 CNS = system: SF-268 CNS
HL-60(TB) leukemia = system: HL-60(TB) leukemia
SF-539 CNS = system: SF-539 CNS
SK-OV-3 ovarian = system: SK-OV-3 ovarian
RPMI-8226 leukemia = system: RPMI-8226 leukemia
UO-31 renal = system: UO-31 renal
SK-MEL-2 melanoma = system: SK-MEL-2 melanoma
LOX IMVI melanoma = system: LOX IMVI melanoma
MCF7 breast = system: MCF7 breast
HOP-92 NSCLC = system: HOP-92 NSCLC

SMILES	TGI (SF-268 CNS) [µM]	TGI (HL-60(TB) leukemia) [µM]	TGI (SF-539 CNS) [µM]	TGI (SK-OV-3 ovarian) [µM]	TGI (RPMI-8226 leukemia) [µM]	TGI (UO-31 renal) [µM]	TGI (SK-MEL-2 melanoma) [µM]	TGI (LOX IMVI melanoma) [µM]	GI50 (SF-268 CNS) [µM]	GI50 (MCF7 breast) [µM]	TGI (MCF7 breast) [µM]	GI50 (HL-60(TB) leukemia) [µM]	GI50 (LOX IMVI melanoma) [µM]	GI50 (HOP-92 NSCLC) [µM]	TGI (HOP-92 NSCLC) [µM]	GI50 (SF-539 CNS) [µM]	GI50 (SK-OV-3 ovarian) [µM]	GI50 (UO-31 renal) [µM]	GI50 (SK-MEL-2 melanoma) [µM]	GI50 (RPMI-8226 leukemia) [µM]
CN(C)C(=S)/N=c1\ss/c(=N\C(=S)N(C)C)n1Cc1ccco1	> 100	> 100	> 100	> 100	> 100	> 100	> 100													
CN(C(=O)C12C3C4C1C1C2C3C41C(O)C(C)(C)C)C(C)(C)C (centres undefined)	> 100	> 100	> 100	> 100	> 100	> 100	> 100	> 100												
Clc1ccc2nc(Cl)c3ccccc3c2c1	> 100	> 100	42	21.2		38.1	60.8	> 100	17.2	96	> 100	> 100	20.9	11.9	29.7	12	5.17	3.82	24.3	
O=C(Oc1ccccc1Cl)c1ccccc1Nc1cccc(C(F)(F)F)c1	60.6		42.2	> 100	54.2	> 100	> 100	33.5	20.5	33.9	> 100		11.9	5.81	38.2	22.1	47.5	30.9	20.9	18.4
O=S1c2ccccc2NC(c2ccc3ccccc3c2)CC1c1ccccc1 (centres undefined)	> 100	55.3	41.1	> 100	60.8	47.9	> 100	33.7												
CCSc1ccc([C@@H]2[C@@H](N)C(=O)N2c2cc(OC)c(OC)c(OC)c2)cc1	> 100	0.067		> 100	46.9	> 100	> 100	> 100	0.0872	0.0392	> 100	0.0257	0.0754	30.2	> 100		0.0545	0.59	0.047	0.0862
Oc1ccc2ccccc2c1N=Nc1ccc(Cl)cc1	> 100	> 100		> 100	> 100	> 100	> 100	78.7							> 100					
C[N+](C)(C)CC(CC(=O)[O-])C1CC1 (centres undefined)	> 100	> 100	> 100	> 100	> 100	> 100	> 100	> 100							> 100					
O=C(O)c1cn(C2CC2)c2cc(N3CCNCC3)c(F)cc2c1=O				> 100	> 100	> 100				> 100	> 100						> 100	> 100		> 100
Fc1ccc([C@@H]2CCNC[C@H]2COc2ccc3c(c2)OCO3)cc1	23.5	19.9	25.6	25.7	8.9	19.6	18.5		10.8	3.23	14.6	4.95		1.62	12.8	12.8	12.7	5.76	5.72	2.4
COc1ccc(-c2nnc(SCC(=O)Nc3ccc(C(=O)/C=C/c4cc(OC)c(OC)c(OC)c4)cc3)n2-c2ccccc2)cc1OC	> 10	> 10	> 10	> 10	5.73	> 10	> 10	4.87	3.46	0.382	> 10	6.44	1.74			3.2	6.06	> 10	> 10	0.387
Oc1ccc(Oc2cnc3cc(Cl)ccc3n2)cc1	> 100	> 100	> 100	> 100	> 100	94		> 100	14.8	38.1	> 100	2.25	34.9	37.3	> 100	49.4	> 100	3.88		16.7
O=c1ccn(C2(CO)C=C(CO)C(O)C2O)c(=O)[nH]1 (centres undefined)	> 25.7	> 25.7	> 25.7	> 25.7	> 25.7	> 25.7	> 25.7													
O=C(Cc1ccc(Nc2ccnc(C(F)(F)F)c2)cc1)Nc1cc(Cl)ccc1O	31.5	5.35	22	54.9	4.1	18.2		28.5	8.39	4.99	42.8	1.7	6.46	1.96	8.44	7.18	15.8	2.84		1.25
CCOc1cc2c(=O)oc3c(OC)ccc4ccc(c1OC)c2c43	> 100	> 100	> 100	> 100		> 100	> 100	> 100			> 100				> 100					
CCCC(=O)c1ccc(=O)n(C)c1	> 100	> 100	> 100	> 100	> 100	> 100	> 100	> 100							> 100					
CCCC(C)c1c(Cl)nc(Cl)nc1Cl (centres undefined)	> 100	> 100	19	43.8	> 100	34.7	> 100	> 100			26.3									
Nc1c(C(=O)NC23CC4CC(CC(C4)C2)C3)[n+]([O-])c2ccccc2[n+]1[O-]	> 100	> 100	> 100	> 100	> 100	> 100	> 100	> 100							> 100					
Cc1cn([C@H]2C[C@H](O)[C@@H](CO)O2)c(=O)nc1N	> 100	> 100	> 100	> 100	> 100	> 100	> 100	> 100			> 100									
O=C(Nc1ccc(Nc2ccncc2)cc1)c1ccc(Nc2ccnc3ccc([N+](=O)[O-])cc23)cc1[N+](=O)[O-]		> 58.7	11.2	40	55.3	> 64.1		> 51		4.73	> 100	25	4.82	24.6	> 74.2	2.98	19.3	7.33		12.6
COc1ccc(OC(C)C(=O)O)c2c1CCCC2=O (centres undefined)	> 100	> 100	> 100	> 100	> 100	> 100	> 100	> 100												

SMILES	TGI (SF-268 CNS) [µM]	TGI (HL-60(TB) leukemia) [µM]	TGI (SF-539 CNS) [µM]	TGI (SK-OV-3 ovarian) [µM]	TGI (RPMI-8226 leukemia) [µM]	TGI (UO-31 renal) [µM]	TGI (SK-MEL-2 melanoma) [µM]	TGI (LOX IMVI melanoma) [µM]	GI50 (SF-268 CNS) [µM]	GI50 (MCF7 breast) [µM]	TGI (MCF7 breast) [µM]	GI50 (HL-60(TB) leukemia) [µM]	GI50 (LOX IMVI melanoma) [µM]	GI50 (HOP-92 NSCLC) [µM]	TGI (HOP-92 NSCLC) [µM]	GI50 (SF-539 CNS) [µM]	GI50 (SK-OV-3 ovarian) [µM]	GI50 (UO-31 renal) [µM]	GI50 (SK-MEL-2 melanoma) [µM]	GI50 (RPMI-8226 leukemia) [µM]
CC(C)CN1CC(C)C(=O)NC1=O (centres undefined)	> 100	> 100	> 100	> 100		> 100	> 100	> 100							> 100					
O=C(Cc1csc2nc(-c3ccc(Br)cc3)cn12)N/N=C/c1ccc(Cl)cc1Cl	> 100		63.8	> 100	> 100	> 100	> 100	48.6	> 100	> 100	> 100		21.2	28.2	> 100	27.2	> 100	72.4	72	80.2
COc1ccc(N=Nc2c(-c3ccccc3)nn(C(=O)CC(=O)Nc3ccccc3Cl)c2-c2ccccc2)cc1	> 100	> 100	> 100			> 100		> 100							> 100					
CC(C)C[CH2][Ge]([CH2]CC(C)C)([CH2]CC(C)C)[CH2]CC(C)C	> 100	> 100	> 100	> 100	> 100	> 100	> 100	> 100	> 100	> 100	> 100	> 100	> 100			> 100	> 100	> 100	> 100	> 100
NC(CCc1ncc(-c2ccccc2)s1)C(=O)O (centres undefined)		> 100	> 100	> 100	> 100	> 100		> 100							> 100					
COC1C(CO)OC(n2c3c(Cl)cccc3c3c4c(c5c6cccc(Cl)c6[nH]c5c32)C(=O)NC4=O)C(O)C1O (centres undefined)	> 51.7		0.489	> 24.9	> 18.7	2.6	> 26.3	0.289			4.86				4.88					
CCOc1ccc(NCC2CC/C(=C\c3ccc(Cl)cc3)C2=O)cc1 (centres undefined)	> 86.7	37.3	> 57	> 100	10.2	> 58.5	58.7	35.4							41.6					
Cc1ccc(/C=C/C(=O)c2ccc([N+](=O)[O-])cc2)cc1	> 100	> 100	> 100	> 100		> 100	> 100	> 100												
Cc1cccc(C(C)C)c1NC(=O)CCl	> 100	> 100	> 100	> 100	> 100	> 100	> 100	> 100							> 100					
C=C1CCC2C(C)(CO)C(O)CCC2(C)C1C/C=C1/CCOC1=O (centres undefined)		> 100	> 100	> 100	> 100	> 100	> 100	> 100							> 100					
O=C1CCNC(=O)NC1	> 100	> 100		> 100	> 100	> 100	> 100	> 100							> 100					
O=C1c2cccc3c(Cl)ccc(c23)C(=O)N1CCCN1CCN(CCCN2C(=O)c3cccc4c(Cl)ccc(c34)C2=O)CC1		> 100	> 100	> 100	> 100	> 100	> 100	> 100							> 100					
CCC(C)c1cccc(C)c1NC(=O)C(=O)Cc1nc2ccccc2s1 (centres undefined)	> 100	> 100	> 100	> 100	> 100	> 100	> 100	> 100							> 100					
c1ccc2c(c1)Sc1ccccc1N2C1CN2CCC1CC2 (centres undefined)	63	32	28.3	35.4	43.4	39.6	16.8	26.8												
COc1ccc(-c2nc(-c3ccccn3)c(-c3ccccn3)n2CC(C)C)cc1OC1CCCC1	> 165	58.8	99.7	116	80.5	142	80.2	110	43.8	6.58	115	21.2	26.1			33.8	27.6	7.43	38.4	27.4
O=C(/C=C/c1ccccc1O)c1cccc2ccccc12	> 100	> 80.8	> 100	> 100	76.6	> 100	> 100	98.6							> 100					
O=C1CCCC(O)=C1SC1=C(O)CCCC1=O	> 100	> 100	> 100	> 100	> 100	> 100	> 100	> 100							> 100					
CN1C(=O)CCC1c1ccc2c(c1)oc(=O)n2C (centres undefined)	> 100	> 100	> 100	> 100	> 100	> 100	> 100	> 100												
COc1cc2cnc(-c3ccccc3)cc2cc1OC	> 100	59.7	> 100	> 100	36	> 100	54.6				> 100				65.9					
CCOC(=O)C(=O)Nc1ccccc1OCC	> 100	> 100	> 100	> 100	> 100	> 100	> 100	> 100							> 100					
